Measurements published in patent publication US20240050463A1, “THERAPEUTIC COMPOSITIONS AND METHODS FOR TREATING HEPATITIS B” (ARBUTUS BIOPHARMA CORPORATION, priority 2016, published 2024).
Where two headings read alike, the source gives them in different places.

What was measured:
hepatitis B virus (HBV) = test: Serum HBV DNA in mouse model of HBV (pHBV1.3 hydrodynamic injection), quantitative PCR; format: in vivo, NOD.CB17-Prkdc^scid/J mice; details: mean ± SEM
Method: A mouse model of hepatitis B virus (HBV) was used to assess the anti-HBV effects of a small molecule inhibitor of HBV encapsidation (Compound 3) and HBV-targeting siRNAs, both as independent treatments and in combination with each other.
On Day −7, 10 micrograms of the plasmid pHBV1.3 (as per Guidotti, L., et al., Journal of Virology, 1995, 69(10): 6158-6169) was administered to NOD.CB17-Prkdc^scid/J mice via hydrodynamic injection (HDI; rapid 1.6 mL injection into the tail vein). […] As a readout of the anti-HBV effect of various treatments, serum HBV DNA concentration in mice was measured from total extracted DNA using a quantitative PCR assay (primer/probe sequences from Tanaka, Y., et al., Journal of Medical Virology, 2004, 72: 223-229).
Animals were treated with Compound 3 as follows: Starting on Day 0, a 50 mg/kg or 100 mg/kg dosage of Compound 3 was administered orally to animals on a twice-daily frequency for a total of fourteen doses between Days 0 and 7. Compound 3 was dissolved in a co-solvent formulation for administration. Negative control animals were administered either the co-solvent formulation alone, or saline. Animals were treated with lipid nanoparticle (LNP)-encapsulated HBV-targeting siRNAs as follows: On Day 0, an amount of test article equivalent to 0.1 mg/kg siRNA was administered intravenously.
The effect of these treatments was determined by collecting blood on Days 0 (pre-treatment), 4 & 7 and analyzing it for serum HBV DNA content.
Animals were treated with Compound 3 as follows: Starting on Day 0, a 100 mg/kg dosage of Compound 3 was administered orally to animals on a twice-daily frequency for a total of fourteen doses between Days 0 and 7. Compound 3 was dissolved in a co-solvent formulation for administration. Negative control animals were administered either the co-solvent formulation alone, or saline. Animals were treated with ETV as follows: Starting on Day 0, either a 100 ng/kg or a 300 ng/kg dosage of ETV was administered orally to animals on a once-daily frequency for a total of seven doses between Days 0 and 6. ETV was dissolved in DMSO to 2 mg/mL and then diluted in saline for administration.
The effect of these treatments was determined by collecting blood on Days 0 (pre-treatment), 4 & 7 and analyzing it for serum HBV DNA content. Samples with Ct values below the lower limit of quantitation (LLOQ) were set to one-half LLOQ for calculation of group means.

[1] = test system: HBV rcDNA in HepDE19 cells; test: Inhibition of rcDNA in HepDE19 cells (bDNA assay), checkerboard, MacSynergy II; format: cell-based, HBV (human hepatoma cell line); parameters: key to ADDITIVE INHIBITION: % inhibition of rcDNA production; details: for ADDITIVE INHIBITION: GLS-4 0 μM; for inhibition at 0.000125 µM: ETV 0.125 nM alone
Method: In vitro combination studies were conducted using the method of Prichard and Shipman (Prichard M N, and Shipman C Jr., Antiviral Research, 1990, 14(4-5), 181-205; and Prichard M N, et. al., MacSynergy II). HepDE19 cell culture system is a HepG2 (human hepatocarcinoma) derived cell line that supports HBV DNA replication and cccDNA formation in a tetracycline (Tet)-regulated manner and produces HBV rcDNA and a detectable reporter molecule dependent on the production and maintenance of cccDNA (Guo et al 2007. J. Virol 81:12472-12484). HepDE19 (50,000 cells/well) were plated in 96 well collagen-coated tissue-culture treated microtiter plates in DMEM/F12 medium supplemented with 10% fetal bovine serum, 1% penicillin-streptomycin and 1 μg/ml tetracycline and incubated in a humidified incubator at 37° C. and 5% CO2 overnight. Next day, the cells were switched to fresh medium without tetracycline and incubated for 4 hrs at 37° C. and 5% CO2. […] The two inhibitors were tested both singly as well as in combinations in a checkerboard fashion such that each concentration of inhibitor A was combined with each concentration of inhibitor B to determine their combination effects on inhibition of rcDNA production. Following a 7 day-incubation of cells with compound combinations, the level of rcDNA present in the inhibitor-treated wells was measured using a Quantigene 2.0 bDNA assay kit (Affymetrix, Santa Clara, CA) with HBV specific custom probe set and manufacturers instructions. […] The RLU data from the single compound treated cells were analyzed using XL-Fit module in Microsoft Excel to determine EC50 values using a 4-parameter curve fitting algorithm. Concurrently, the effect of compounds on cell viability was assessed using replicate plates, plated at a density of 5,000 cells/well and incubated for 4 days, to determine the ATP content as a measure of cell viability using the cell-titer glo reagent (CTG; Promega Corporation, Madison, WI) as per manufacturer's instructions.
In vitro combination studies were conducted using the method of Prichard and Shipman (Prichard M N, Shipman C, Jr., Antiviral Res, 14, 181-205 (1990)). The HepDE19 cell line was developed as described in Guo et al. (Guo et al., J Virol, 81, 12472-12484 (2007)). It is a human hepatoma cell line stably transfected with the HBV genome, and which can express HBV pregenomic RNA and support HBV rcDNA (relaxed circular DNA) synthesis in a tetracycline-regulated manner. HepDE19 cells were plated in 96 well tissue-culture treated microtiter plates in DMEM/F12 medium supplemented with 10% fetal bovine serum+1% penicillin-streptomycin without tetracycline and incubated in a humidified incubator at 37° C. and 5% CO2 overnight. […] The two inhibitors were tested both singly as well as in combinations in a checkerboard fashion such that each concentration of inhibitor A was combined with each concentration of inhibitor B to determine their combination effects on inhibition of rcDNA production. Following a 48 hour-incubation, the level of rcDNA present in the inhibitor-treated wells was measured using a bDNA assay (Affymetrix) with HBV specific custom probe set and manufacturers instructions. […] Concurrently, the effect of inhibitor combinations on cell viability was assessed using replicate plates that were used to determine the ATP content as a measure of cell viability using the Cell-TiterGlo reagent (Promega) as per manufacturer's instructions.
In vitro combination studies were conducted using the method of Prichard and Shipman (1990) (Prichard M N, Shipman C, Jr. 1990. A three-dimensional model to analyze drug-drug interactions. Antiviral Res 14:181-205 AND Prichard M N. 1992. MacSynergy II, University of Michigan).

CC[C@@H](C)NS(=O)(=O)c1ccc(F)c(C(=O)Nc2ccc(F)c(F)c2)c1 [Compound 3]
Serum HBV DNA as percentage of individual pre-treatment baseline (hepatitis B virus (HBV); Table 2, Day 0 (pre-treatment), Compound 3 50 mg/kg oral twice daily, alone or with HBV siRNA 0.1 mg/kg IV Day 0): 100 ± 0% | Serum HBV DNA as percentage of individual pre-treatment baseline (hepatitis B virus (HBV); Table 2, Day 0 (pre-treatment), Compound 3 100 mg/kg oral twice daily, alone or with HBV siRNA 0.1 mg/kg IV Day 0): 100 ± 0% | Serum HBV DNA as percentage of individual pre-treatment baseline (hepatitis B virus (HBV); Table 3, Day 0 (pre-treatment), Compound 3 100 mg/kg oral twice daily alone): 100 ± 0% | ADDITIVE INHIBITION ([1]; Compound 3 0.040 μM): 11.14 | ADDITIVE INHIBITION ([1]; Compound 3 0.110 μM): 19.99 | ADDITIVE INHIBITION ([1]; Compound 3 0.330 μM): 56.68 | ADDITIVE INHIBITION ([1]; Compound 3 1.000 μM): 86.87

C=C1[C@H](CO)[C@@H](O)C[C@@H]1n1cnc2c(=O)[nH]c(N)nc21 [ETV, Entecavir]
Serum HBV DNA as percentage of individual pre-treatment baseline (hepatitis B virus (HBV); Table 3, Day 0 (pre-treatment), ETV 100 ng/kg oral once daily, alone or with Compound 3 100 mg/kg oral twice daily): 100 ± 0% | Serum HBV DNA as percentage of individual pre-treatment baseline (hepatitis B virus (HBV); Table 3, Day 0 (pre-treatment), ETV 300 ng/kg oral once daily, alone or with Compound 3 100 mg/kg oral twice daily): 100 ± 0% | Serum HBV DNA as percentage of individual pre-treatment baseline (hepatitis B virus (HBV); Table 3, Day 4, ETV 100 ng/kg oral once daily, alone or with Compound 3 100 mg/kg oral twice daily): 21 ± 5% | Serum HBV DNA as percentage of individual pre-treatment baseline (hepatitis B virus (HBV); Table 3, Day 4, ETV 300 ng/kg oral once daily, alone or with Compound 3 100 mg/kg oral twice daily): 1.6 ± 0.3% | Serum HBV DNA as percentage of individual pre-treatment baseline (hepatitis B virus (HBV); Table 3, Day 7, ETV 100 ng/kg oral once daily, alone or with Compound 3 100 mg/kg oral twice daily): 3.5 ± 0.7% | Serum HBV DNA as percentage of individual pre-treatment baseline (hepatitis B virus (HBV); Table 3, Day 7, ETV 300 ng/kg oral once daily, alone or with Compound 3 100 mg/kg oral twice daily): 0.88 ± 0.31% | inhibition at 15.63 pM ([1]; Hepatitis B virus, HepDE19, ETV 0.015625 nM alone, read-out: Additive inhibition (rcDNA)): -43.7% | inhibition at 16 pM ([1]; Hepatitis B virus, HepDE19, ETV 0.016 nM alone): -43.7% | inhibition at 31 pM ([1]; Hepatitis B virus, HepDE19, ETV 0.031 nM alone): -50.1% | inhibition at 31.25 pM ([1]; Hepatitis B virus, HepDE19, ETV 0.03125 nM alone, read-out: Additive inhibition (rcDNA)): -50.1% | inhibition at 62.5 pM ([1]; Hepatitis B virus, HepDE19, ETV 0.0625 nM alone, read-out: Additive inhibition (rcDNA)): -30.3% | inhibition at 63 pM ([1]; Hepatitis B virus, HepDE19, ETV 0.063 nM alone): -30.3% | inhibition at 0.000125 µM ([1]; Hepatitis B virus, HepDE19, read-out: Additive inhibition (rcDNA)): -23.5% | inhibition at 0.000125 µM ([1]; Hepatitis B virus, HepDE19, read-out: Average % inhibition (rcDNA)): -23.5% | inhibition at 0.00025 µM ([1]; Hepatitis B virus, HepDE19, ETV 0.25 nM alone, read-out: Additive inhibition (rcDNA)): -21.2% | inhibition at 0.00025 µM ([1]; Hepatitis B virus, HepDE19, ETV 0.250 nM alone, read-out: Average % inhibition (rcDNA)): -21.2% | inhibition at 0.0005 µM ([1]; Hepatitis B virus, HepDE19, ETV 0.5 nM alone, read-out: Additive inhibition (rcDNA)): -10.2% | inhibition at 0.0005 µM ([1]; Hepatitis B virus, HepDE19, ETV 0.500 nM alone, read-out: Average % inhibition (rcDNA)): -10.2% | inhibition at 0.001 µM ([1]; Hepatitis B virus, HepDE19, ETV 1 nM alone, read-out: Additive inhibition (rcDNA)): 41.7% | inhibition at 0.001 µM ([1]; Hepatitis B virus, HepDE19, ETV 1.000 nM alone, read-out: Average % inhibition (rcDNA)): 41.7% | inhibition at 0.002 µM ([1]; Hepatitis B virus, HepDE19, ETV 2 nM alone, read-out: Additive inhibition (rcDNA)): 58.4% | inhibition at 0.002 µM ([1]; Hepatitis B virus, HepDE19, ETV 2.000 nM alone, read-out: Average % inhibition (rcDNA)): 58.4% | inhibition at 0.004 µM ([1]; Hepatitis B virus, HepDE19, ETV 4 nM alone, read-out: Additive inhibition (rcDNA)): 70% | inhibition at 0.004 µM ([1]; Hepatitis B virus, HepDE19, ETV 4.000 nM alone, read-out: Average % inhibition (rcDNA)): 70%
